# Assay results published in patent US5726195A, “Aminoacyl adenylate mimics as novel antimicrobial and antiparasitic agents” (Cubist Pharmaceuticals, Inc., priority 1996, dated 1998).
# Experiments:
# [1] = test system: Streptococcus pyogenes (ATCC 8668); assay: Mouse protection test against wild type Streptococcus pyogenes; assay type: in vivo, Streptococcus pyogenes; female CD-1 mice; settings: 10 mg/kg sc (positive control), repeated at 4 hours, 7 days
# Excerpt: (§1) The mouse protection test is an industry standard for measuring the efficacy of a test compound in vivo [for examples of this model see J. J. Clement, et al., Antimicrobial Agents and Chemotherapy, 38 (5), 1071-1078, (1994)]. As exemplified below, this test was used to show the in vivo efficacy of the compounds of the present invention against bacteria.
# The in vivo antibacterial activity of compound X was established by infecting female CD-1 mice (Charles River Lab, Massachusettes) weighing 20-24 g intraperitoneally with Streptococcus pyogenes inoculum. The inoculum was prepared from Streptococcus pyogenes (ATCC 8668) which was cultured in brain heart infusion broth (Baltimore Biological Laboratories,Maryland) at 37° C. for 18 hr, and then 0.1 ml of the overnight culture was diluted with the medium to 5.0 ml for reading its OD at 600 nm (0.017). The turbidity of a 0.5 McFarland standard is equivalent to OD600 0.1, or 10^8 cfu/ml. Then, 8×10^5 cfu of the bacteria (940 μl of 1:1000 overnight culture) was added to 20 ml of phosphate buffered saline (Sigma P-0261 ) containing 5% hog gastric mucin (Sigma M-2378). All animals were injected with 0.5 ml of the inoculum, equivalent to 2×10^4 cfu/mouse which is the dose causing ~100% death of the animals without treatment.
# Compound X (50 mg) was dissolved in 5.0 ml of 0.05M Tris.HCl (pH 8.8) to give a solution of 10 mg/ml. This solution was serially diluted with 0.05 M Tris.HCl by 5-fold (1.0 ml to 5.0 ml) to give 2, 0.4 and 0.08 mg/ml solutions. The known antibiotic erythromycin (Sigma E-6376, in phosphate buffered saline, 1 mg/ml, pH 7.0) was used as a positive control. All the solutions were filtered with 0.2 μm Nalgene syringe filter. Immediately after the bacterial inoculation, group 1 animals were subcutaneously (sc) injected with 0.05M Tris.HCl (no antibiotic) and groups 2 to 5 were given compound X sc at 0.8, 4, 20, and 100 mg/kg, respectively. Group 6 animals received erythromycin sc at 10 mg/kg. These injections were repeated once at 4 hours after the inoculation for the respective groups. The injection volume at each time was 10 ml per kilogram of body weight. The 50% protective dose (PD50) is calculated on the basis of the number of mice surviving 7 days after inoculation.
# [2] = target: E. Coli. IleRS (isoleucyl-tRNA synthetase) (Escherichia coli, UniProt P00956); assay: Inhibition of isoleucyl-tRNA synthetase (aminoacylation of tRNA with [3H]isoleucine); assay type: biochemical; settings: E. coli enzyme; irreversible inhibitors: values are 50% of the active enzyme concentration; read-out: IC50 E.Coli. IleRS
# Protocol: The extent of aminoacylation of tRNA with isoleucine catalyzed by isoleucyl-tRNA synthetase enzyme was measured by monitoring the incorporation of [3H] isoleucine into trichloroacetic acid-precipitable tRNA in the presence of a compound of Formula I, as compared with activity in the absence of inhibitor. The isoleucyl-tRNA synthetase enzymes are well known in the prior art and can be obtained and purified by known methods (for example see: D. Kern et at., Biochimie, 61, 1257-1272 (1979) and J. Gilbart et al., Antimicrobial Agents and Chemotherapy, 37 (1), 32-38 (1993)).
# Isoleucyl-tRNA synthetase enzyme (0.08-2.0 nM, preferably, 0.4 nM) was first pre-incubated at 25° C. with 0.05 mg/ml bovine serum albumin, 10 mM DTT, 2.5% dimethyl sulfoxide, with or without a compound of Formula I, for 20 minutes. At this point a substrate solution (a solution containing the following: ATP, [^3 H]isoleucine, tRNA, HEPES, magnesium chloride, and potassium chloride) was added to give a final concentration of 0.0286 mg/ml bovine serum albumin, 5.7 mM DTT, 4 mM ATP, 5-20 μM [^3 H] isoleucine (1-15 Ci/mmol), 90 μM crude tRNA or 2 μM isoleucine specific tRNA, 1.4% dimethyl sulfoxide, 30 mM HEPES (pH 7.5), 10 mM magnesium chloride, and 50 mM potassium chloride and incubated at 25° C. Aliquots were removed at selected times (e.g. 5, 10, 20 minutes) and applied to 3MM filter paper discs (Whatman) and then dropped into 5% (wt/vol) trichloroacetic acid for >5 minutes. Filters were washed for three 10-minute periods in 5% trichloroacetic acid, rinsed in 95% ethanol and diethyl ether, and radioactivity was measured with Betafluor™ (National Diagnostics) by liquid scintillation counting.
# Inhibitor activity is reported in Table II as an IC50 value (inhibitor concentration causing 50% inhibition of enzyme activity) per a known amount of active enzyme. In the case of irreversible inhibitors (1:1 stoichiometry) these values are 50% of the active enzyme concentration. The IC50 (in nM, E. coli) values of representative compounds of the present invention are listed in the second column of Table II.
# [3] = test system: S. epidermidis ATCC 33501; assay: Whole cell antimicrobial screen, MIC; assay type: cell-based; settings: Staphylococcus epidermidis, ATCC33501
# Protocol: (§2) Compounds were tested for antimicrobial activity against a panel of organisms according to standard procedures described by the National Committee for Clinical Laboratory Standards (NCCLS document M7-A3, Vol. 13, No. 25, 1993/NCCLS document M27-P, Vol. 12, No. 25, 1992). Compounds were dissolved in 100% dimethyl sulfoxide and were diluted to the final reaction concentration (0.1 μg/mL-500 μg/mL) in microbial growth media. In al cases the final concentration of dimethyl sulfoxide incubated with cells is less than or equal to 1%. For minimum inhibitory concentration (MIC) calculations, 2-fold dilutions of compounds were added to wells of a microtiter plate containing 5×10^4 bacteria or fungal cells in a final volume of 100 lambda of an appropriate media (Mueller-Hinton Broth; Haemophilus Test Media; Mueller-Hinton Broth+5% Sheep Blood; or […]). Plates were incubated overnight at an appropriate temperature (30° C.-37° C.) and optical densities (measure of cell growth) were measured using a commercial plate reader. The MIC value is defined as the lowest compound concentration inhibiting growth of the test organism.
# S. aureus ATCC 6538P = assay: Whole cell antimicrobial screen, MIC; assay type: cell-based; settings: Staphylococcus aureus, ATCC6538P
# Protocol: as §2
# B. subtilis ATCC 6633 = assay: Whole cell antimicrobial screen, MIC; assay type: cell-based; settings: Bacillus subtilis, ATCC6633
# Protocol: as §2
# E. faecium ATCC 6569 = assay: Whole cell antimicrobial screen, MIC; assay type: cell-based; settings: Enterococcus faecium, ATCC6569
# Protocol: as §2
# C. albicans ATCC 10231 = assay: Whole cell antimicrobial screen, MIC; assay type: cell-based; settings: Candida albicans, ATCC10231
# Protocol: as §2
# K. pneumonia ATCC 4352 = assay: Whole cell antimicrobial screen, MIC; assay type: cell-based; settings: Klebsiella pneumoniae, ATCC4352
# Protocol: as §2
# S. aureus ATCC 14154 = assay: Whole cell antimicrobial screen, MIC; assay type: cell-based; settings: Staphylococcus aureus, ATCC14154
# Protocol: as §2
# [4] = test system: M. catarrhalis ATCC 25240; assay: Whole cell antimicrobial screen, MIC; assay type: cell-based; settings: Moraxella catarrhalis, ATCC25240
# Protocol: as §2
# [5] = test system: S. saprophyticus ATCC 35552; assay: Whole cell antimicrobial screen, MIC; assay type: cell-based; settings: Staphylococcus saprophyticus, ATCC35552
# Protocol: as §2
# E. faecalis ATCC 33011 = assay: Whole cell antimicrobial screen, MIC; assay type: cell-based; settings: Enterococcus faecalis, ATCC33011
# Protocol: as §2
# S. pyogenes ATCC 8668 = assay: Whole cell antimicrobial screen, MIC; assay type: cell-based; settings: Streptococcus pyogenes, ATCC8668
# Protocol: as §2
# [6] = test system: multidrug resistant Streptococcus pyogenes (#OTTO 209); assay: Mouse protection test against multidrug resistant Streptococcus pyogenes; assay type: in vivo, Streptococcus pyogenes; female CD-1 mice; settings: 10 mg/kg sc (positive control), repeated at 4 hours, 7 days
# Excerpt: as §1
# The in vivo activity of compound X against multidrug resistant bacteria was established by infecting female CD-1 mice (Charles River Lab, Massachusettes) weighing 20-24 g intraperitoneally with multidrug resistant Streptococcus pyogenes inoculum. The inoculum was prepared from multidrug resistant Streptococcus pyogenes (resistant to erythromycin, tetracycline, and chloramphenicol, #OTTO 209 obtained from Dr. Pentti Huovinen, National Public Health Institute, Finland) which was cultured in brain heart infusion broth (Baltimore Biological Laboratories, Maryland) at 37° C. for 2 hr, and then 0.1 ml of the culture was diluted with the medium to 1.0 ml for reading its OD at 600 nm (0.12). The turbidity of a 0.5 McFarland standard is equivalent to OD600 0.1, or 10^8 cfu/ml. Then, 4×10^8 cfu of the bacteria (333 μl was added to 20 ml of phosphate buffered saline (Sigma P-0261 ) containing 10 % hog gastric mucin (Sigma M-2378). All animals were injected with 0.5 ml of the inoculum, equivalent to 10^7 cfu/mouse which is the dose causing ~100% death of the animals without treatment.
# Compound X (60 mg) was dissolved in 6.0 ml of 0.05M Tris.HCl (pH 8.8) to give a solution of 10 mg/ml. This solution was serially diluted two times with 0.05M Tris.HCl by 5-fold (1.0 ml to 5.0 ml) to give 2 and 0.4 mg/ml solutions. The known antibiotic vancomycin HCl (Sigma V-2002, in normal saline, 1 mg/ml, pH 6.0-7.0) was used as a positive control. All the solutions were filtered with 0.2 μm Nalgene syringe filter. Immediately after the bacterial inoculation, group 1 animals were subcutaneously (sc) injected with 0.05M Tris.HCl (no antibiotic) and groups 2 to 4 were given compound X sc at 4, 20 and 100 mg/kg, respectively. Group 5 animals received vancomycin sc at 10 mg/kg. These injections were repeated once at 4 hours after the inoculation for the respective groups. The injection volume at each time was 10 ml per kilogram of body weight. The 50% protective dose (PD50) is calculated on the basis of the number of mice surviving 7 days after inoculation.
# E. Coli. IleRS (isoleucyl-tRNA synthetase), sequence (P00956 whole entry): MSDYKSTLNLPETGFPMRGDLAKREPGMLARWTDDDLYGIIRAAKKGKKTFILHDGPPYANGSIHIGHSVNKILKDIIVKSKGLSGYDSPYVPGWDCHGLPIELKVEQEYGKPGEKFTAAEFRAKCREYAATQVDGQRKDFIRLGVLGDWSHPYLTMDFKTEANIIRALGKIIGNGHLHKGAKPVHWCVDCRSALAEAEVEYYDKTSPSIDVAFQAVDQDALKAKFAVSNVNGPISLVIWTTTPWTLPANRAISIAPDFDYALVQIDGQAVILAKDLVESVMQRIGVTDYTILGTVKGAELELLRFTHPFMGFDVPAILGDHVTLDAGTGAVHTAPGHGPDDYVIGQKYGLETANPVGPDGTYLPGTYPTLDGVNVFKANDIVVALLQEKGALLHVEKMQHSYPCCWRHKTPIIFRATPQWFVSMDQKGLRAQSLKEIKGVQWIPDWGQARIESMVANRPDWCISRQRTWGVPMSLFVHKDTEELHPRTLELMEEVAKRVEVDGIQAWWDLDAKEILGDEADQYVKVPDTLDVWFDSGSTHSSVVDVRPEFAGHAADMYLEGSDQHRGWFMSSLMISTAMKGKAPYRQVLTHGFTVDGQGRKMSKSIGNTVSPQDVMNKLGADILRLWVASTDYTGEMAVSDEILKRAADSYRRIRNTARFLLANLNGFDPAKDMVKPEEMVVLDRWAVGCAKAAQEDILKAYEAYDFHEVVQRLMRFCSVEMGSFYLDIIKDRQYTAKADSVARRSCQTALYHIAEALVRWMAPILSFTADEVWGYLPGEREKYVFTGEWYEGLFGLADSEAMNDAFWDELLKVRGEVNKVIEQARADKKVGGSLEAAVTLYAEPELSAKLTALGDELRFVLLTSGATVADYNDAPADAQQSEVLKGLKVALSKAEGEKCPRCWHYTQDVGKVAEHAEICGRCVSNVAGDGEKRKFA
Compound,Protective % [1],Number of Alive ([1]; of 5 mice),IC50 [2],MIC [3],MIC (S. aureus ATCC 6538P),MIC (B. subtilis ATCC 6633),MIC (E. faecium ATCC 6569),MIC (C. albicans ATCC 10231),MIC (K. pneumonia ATCC 4352),MIC (S. aureus ATCC 14154),MIC [4],MIC [5],MIC (E. faecalis ATCC 33011),MIC (S. pyogenes ATCC 8668),Protective % [6],Number of Alive ([6]; of 5 mice)
"CC[C@H]1OC(=O)[C@H](C)[C@@H](O[C@H]2C[C@@](C)(OC)[C@@H](O)[C@H](C)O2)[C@H](C)[C@@H](O[C@@H]2O[C@H](C)C[C@H](N(C)C)[C@H]2O)[C@](C)(O)C[C@@H](C)C(=O)[C@H](C)[C@@H](O)[C@]1(C)O [Erythromycin, erythromycin, reference compound]",100%,5,,,,,,,,,,,,,,
CC[C@H](C)[C@H](N)C(=O)NS(=O)(=O)OC[C@H]1O[C@@H](CCn2nnc(-c3ccc(C#Cc4ccccc4)cc3)n2)[C@H](O)[C@@H]1O [IV],,,4.5 nM,2 µg/mL,10 µg/mL,25 µg/mL,> 500 µg/mL,> 200 µg/mL,50 µg/mL,100 µg/mL,5 µg/mL,10 µg/mL,> 500 µg/mL,,,
CC[C@H](C)[C@H](N)C(=O)NS(=O)(=O)OC[C@H]1O[C@@H](CCn2nnc(-c3ccc(Sc4ccccc4)cc3)n2)[C@H](O)[C@@H]1O [IX],,,5 nM,5 µg/mL,25 µg/mL,,10 µg/mL,> 500 µg/mL,,50 µg/mL,,25 µg/mL,500 µg/mL,0.5 µg/mL,,
CC[C@H](C)[C@H](N)C(=O)NS(=O)(=O)OC[C@H]1O[C@@H](CCn2nnc(-c3ccc(C(=O)OCc4ccccc4)cc3)n2)[C@H](O)[C@@H]1O [VI],,,7.5 nM,5 µg/mL,25 µg/mL,,100 µg/mL,> 500 µg/mL,,50 µg/mL,,25 µg/mL,> 500 µg/mL,> 5 µg/mL,,
"CN[C@H](CC(C)C)C(=O)N[C@H]1C(=O)N[C@@H](CC(N)=O)C(=O)N[C@H]2C(=O)N[C@H]3C(=O)N[C@H](C(=O)N[C@H](C(=O)O)c4cc(O)cc(O)c4-c4cc3ccc4O)[C@H](O)c3ccc(c(Cl)c3)Oc3cc2cc(c3O[C@@H]2O[C@H](CO)[C@@H](O)[C@H](O)[C@H]2O[C@H]2C[C@](C)(N)[C@H](O)[C@H](C)O2)Oc2ccc(cc2Cl)[C@H]1O [Vancomycin, vancomycin, reference compound]",,,,,,,,,,,,,,,100%,5
CC[C@H](C)[C@H](N)C(=O)NS(=O)(=O)OC[C@H]1O[C@@H](CCn2nnc(-c3ccc(OCc4ccc([N+](=O)[O-])s4)cc3)n2)[C@H](O)[C@@H]1O [XVIII],,,0.6 nM,5 µg/mL,5 µg/mL,,> 500 µg/mL,100 µg/mL,,25 µg/mL,,5 µg/mL,> 500 µg/mL,2 µg/mL,,
CC[C@H](C)[C@H](N)C(=O)NS(=O)(=O)OC[C@H]1O[C@@H](CCn2nnc(-c3ccc(-c4ccccc4)cc3C)n2)[C@H](O)[C@@H]1O [XXI],,,0.5 nM,50 µg/mL,100 µg/mL,100 µg/mL,500 µg/mL,,100 µg/mL,500 µg/mL,< 50 µg/mL,50 µg/mL,> 500 µg/mL,,,
CC[C@H](C)[C@H](N)C(=O)NS(=O)(=O)OC[C@H]1O[C@@H](CCn2nnc(-c3ccc(Oc4ccc([N+](=O)[O-])s4)cc3)n2)[C@H](O)[C@@H]1O [XXXI],,,1.3 nM,5 µg/mL,5 µg/mL,,100 µg/mL,,,10 µg/mL,,2 µg/mL,> 500 µg/mL,4 µg/mL,,
